We go through one compound from publication PMC11754874, “Novel inhibitors of the (VIBVN) NAT protein identified through pharmacophore modeling” (Scientific Reports, 2025).

This assay deals with (VIBVN)NAT (arylamine N-acetyltransferase). In words: DTNB assay of AcCoA-dependent acetylation, absorbance at […] nm. In kind it is biochemical, Vibrio vulnificus.

In general, IC50 refers to the concentration that gives 50% inhibition. Lower therefore signals greater potency in that assay. Take `CCCS(=O)(=O)c1c(S(=O)(=O)CCC)c2ccccn2c1C(=O)N/N=C/c1cc(OC)ccc1O` [AG-205-36710025]: the IC50 turned out to be 33.3 µM.
